In patent US8637493B2, “Methods for treating glioblastoma” (University of Massachusetts, priority 2009, dated 2014):

Experiments:
Assay type in all cases: cell-based, human
Hes1 = assay: RT-PCR / qRT-PCR of Notch target Hes1 mRNA in neurosphere cultures after DAPT; details: for decrease of Hes1 mRNA level: 48 hours after treatment, RT-PCR; for Hes1 expression (qRT-PCR): 1 μM DAPT, 48 hours
Protocol: TMZ concentrations for each culture were selected based on previous experiments (Mihaliak et al., Cancer Letts. 296, 168-177 (2010)) DAPT and LY concentrations were chosen for each culture based on the decrease in Hes1 and Hey1 expression. RNA was isolated from the cultures 48 hours after DAPT treatment, and Hes1 and Hey1 cDNA expression levels were analyzed by PCR or qPCR.
RT-PCR and RT-qPCR were performed as follows. Neurosphere cultures were pelleted and tumor tissues from subcutaneous xenografts were broken into a powder using a BioPulverizer (Biospec Products, Inc., Bartlesville, Okla.). RNA was isolated from neurosphere cultures and frozen tumor samples using TRIzol Reagent (Invitrogen, Carlsbad, Calif.), following the manufacturer's protocol. RNA was treated with DNase I, Amplification Grade (Invitrogen, Carlsbad, Calif.). cDNA was made using the SuperScript II Reverse Transcription (RT) Kit with Oligo(dT)12-18 primers (Invitrogen, Carlsbad, Calif.), followed by a 20 minute incubation at 37° C. with RNaseH. PCR was carried out using Taq DNA Polymerase, following the manufacturer's protocol (Invitrogen, Carlsbad, Calif.). Real time qPCR was carried out using QuantiTect SYBR Green (QIAGEN, Valencia, Calif.). Hes1 and β-Actin primers were developed using Primer3 (Rozen and Skaletsky, Methods Mol Biol 2000; 132: 365-86). Hes1 forward primer: 5″ […] 3″ (SEQ ID NO:1) and reverse primer: 5″ […] 3″ (SEQ ID NO:2). β-Actin (RT-PCR) forward primer: 5″[…] 3″ (SEQ ID NO:3) and reverse primer: 5″ […] 3″ (SEQ ID NO:4). β-Actin (qRT-PCR) forward primer: 5″[…] 3″ (SEQ ID NO:5) and reverse primer: 5″ […] (SEQ ID NO:6). Primers for Hey1 (Osipo et al., Oncogene 2008; 27: 5019-32), Notch1 (Lefort et al., Genes Dev 2007; 21: 562-77), Notch2 (O'Neill et al., Am J Pathol 2007; 171: 1023-36), Notch3 (Buchler et al., Ann Surg 2005; 242: 791-800, discussion −1) and Notch4 (Buchler et al., Ann Surg 2005; 242: 791-800, discussion −1) were previously published, RT-PCR products were analyzed on 2% agarose gels. tantification of band intensity for DAPT treated lines was determined using ImageJ (Rasband W S. ImageJ, U.S. National Institutes of Health, Bethesda, Md., USA. 1997-2004). cDNA levels for qRT-PCR products were calculated using the PFAFFL method (Pfaffl, Nucleic Acids Res 2001; 29: e45).

GS8-26 = assay: Neurosphere formation / recovery / secondary neurosphere assay, GS8-26
Protocol: The effect of chemotherapy on neurosphere formation was assayed in glioma neurosphere cultures. Cultures are treated with a single dose of the agent, e.g., TMZ and multiple doses of a GSI, e.g., DAPT to inhibit the Notch pathway. After the Treatment phase, the number of initial spheres (counted about 7 days after TMZ treatment) represents the number of proliferating CSC/progenitors (FIG. 1 for schematic). Recovery (counted 14 days after TMZ treatment) includes enlargement of the initial spheres and new spheres formed when CSC/progenitor cells quiescent as a result of chemotherapy resume cell proliferation. […] The cells used included U87NS, a neurosphere culture converted to neurosphere growth in defined medium from U87MG (an old Swedish line that is grown in conventional serum conditions); GS7-2, GS8-26 and GS6-22 primary neurosphere cultures that were obtained from grade IV GBM patient tumor samples and AS5-15, which was obtained from a grade III anaplastic astrocytoma.
(§1) To determine the effects of TMZ plus DAPT neurospheres, cells were plated as previously described (Mihaliak et al., Cancer Letts. 296, 168-177 (2010)). Immediately after plating, cells were treated with DMSO, DAPT-only, LY411,575 (LY)-only TMZ-only, TMZ+DAPT or TMZ+LY. The initial neurospheres were counted on day 7 for the converted cell lines and on day 10 for the slower growing primary lines. Neurosphere recovery was measured on day 14 or 20. The neurospheres were dissociated, re-plated and secondary neurosphere formation was measured on day 21 or 30.
Neurosphere cultures were dissociated to single cell suspensions by pH dissociation followed by filtration through 40 μm screens. […] Neurospheres consisting of 10 or more cells were counted under a light microscope on day 7 for the converted cell lines. Primary lines have a slightly longer doubling time and were counted on day 10. […] Neurospheres from the recovery period were counted on day 14 or day 20. […] The number of secondary neurospheres formed by converted cell lines and primary cultures were counted on day 21 or day 30, respectively. […]

[1] = tested on: U87NS, U373NS, GS7-2 and GS8-26; assay: Neurosphere recovery assay, initial neurospheres, range over all cultures; details: day 7 or 10
Protocol: as §1
Neurosphere cultures were dissociated to single cell suspensions by pH dissociation followed by filtration through 40 μm screens. For the neurosphere assay, 3,000 cells/ml of defined medium were seeded in 6-well plates. Immediately after plating, cells were treated with DMSO (Research Organics, Cleveland, Ohio) carrier control, TMZ-only, DAPT-only, or TMZ+DAPT. Additional DAPT was added on days 2 and 4. Neurospheres consisting of 10 or more cells were counted under a light microscope on day 7 for the converted cell lines. Primary lines have a slightly longer doubling time and were counted on day 10. […] Neurospheres from the recovery period were counted on day 14 or day 20. […] The number of secondary neurospheres formed by converted cell lines and primary cultures were counted on day 21 or day 30, respectively. […]

U87NS-pMIG = assay: Neurosphere recovery assay, empty vector U87NS-pMIG; details: empty vector control
Protocol: (§2) Neurosphere cultures were dissociated to single cell suspensions by pH dissociation followed by filtration through 40 μm screens. For the neurosphere assay, 3,000 cells/ml of defined medium were seeded in 6-well plates. Immediately after plating, cells were treated with DMSO (Research Organics, Cleveland, Ohio) carrier control, TMZ-only, DAPT-only, or TMZ+DAPT. Additional DAPT was added on days 2 and 4. Neurospheres consisting of 10 or more cells were counted under a light microscope on day 7 for the converted cell lines. Primary lines have a slightly longer doubling time and were counted on day 10. After counting the neurospheres from the initial treatment, 2 ml of fresh defined medium was added to each well. DAPT was also added once more to the DAPT-only and TMZ+DAPT samples, and the cells were incubated for an additional 7 or 10 days. Neurospheres from the recovery period were counted on day 14 or day 20. To analyze secondary neurosphere formation, cells were collected, pelleted and dissociated to a single cell suspension by the pH method. Cells from each well were re-seeded into 6-well plates with 2 ml of defined medium. The number of secondary neurospheres formed by converted cell lines and primary cultures were counted on day 21 or day 30, respectively. All recovery assays were repeated with a minimum of 6 replicate sets of time points. […]

U87NS-NICD = assay: Neurosphere recovery assay, U87NS-NICD (constitutive Notch1 intracellular domain)
Protocol: as §2

GS7-2-pMIG = assay: Neurosphere recovery assay, empty vector GS7-2-pMIG; details: empty vector control
Protocol: as §2

GS7-2-NICD = assay: Neurosphere recovery assay, GS7-2-NICD; details: constitutive NICD
Protocol: as §2

SMILES	decrease of Hes1 mRNA level (Hes1; U87NS, DAPT 1 μM) [%]	Hes1 expression (qRT-PCR) (Hes1; U87NS-NICD)	Hes1 expression (qRT-PCR) (Hes1; U87NS-pMIG)	decrease of Hes1 mRNA level (Hes1; U373NS, DAPT 5 μM) [%]	recovery: increase in the number of neurospheres (GS8-26; day 20 relative to day 10, DAPT 5 μM) [fold]	secondary neurosphere formation, TMZ-only treated culture relative to TMZ+DAPT treated culture (GS8-26; day 30, P<0.001) [fold]	average number of cells per neurosphere capable of self-renewal (GS8-26; secondary neurospheres divided by recovery neurospheres) [cells per neurosphere]	decrease of initial neurosphere formation [1]	recovery: increase in neurospheres (U87NS-pMIG) [fold]	recovery: increase in neurospheres (U87NS-NICD) [fold]	recovery: increase in neurospheres (GS7-2-pMIG) [fold]	recovery: increase in neurospheres (GS7-2-NICD) [fold]
C[C@H](NC(=O)Cc1cc(F)cc(F)c1)C(=O)N[C@H](C(=O)OC(C)(C)C)c1ccccc1 [DAPT, N-[N-(3,5-difluorophenacetyl)-L-alanyl]-(S)-phenylglycine t-butyl ester]	72	minimal decrease	decreased	76								
Cn1nnc2c(C(N)=O)ncn2c1=O [TMZ, temozolomide]					1.6	25	31	80-98%	1.9	2.3	2.1	2.6
